From patent US20260130966A1, “NOVEL THERAPEUTICS FOR PARASITIC INFECTION” (UNIVERSITY OF SOUTH FLORIDA, priority 2022, published 2026)
pEC50, pIC50: −log10 of the molar value. Converted amounts (≈) assume the structure as drawn. “And” between values parts separate entries of the source, which are not always exact repeats. Equal entries are not always repeated. “Also recorded” adds a separate entry of the source. Where two headings read alike, the source gives them in different places. Where a SMILES comes first, the peptide text is derived from it. [ ]: non-standard residue; d: D form. The star is where a group is joined. ξ: configuration not given here. Phe(Nα-CONH2) = NC(=O)N[C@@H](Cc1ccccc1)C(=O)*; NMeI = CC[C@H](C)[C@H](NC)C(=O)O; NMeξIle = CC[C@H](C)C(NC)C(=O)O; X1 = CN(/C=C\c1c[nH]c2ccccc12)*; NMeL = CN[C@@H](CC(C)C)C(=O)O; NMeV = CN[C@H](C(=O)O)C(C)C; NMeA = CN[C@@H](C)C(=O)O; For = O=C*

Key:
Leishmania donovani = Leishmania donovani infected macrophage assay; format: cell-based
Procedure: (§1) The Leishmania donovani infected macrophage assay and cytotoxicity screen were conducted as previously described.

P. falciparum 3D7 = test: microbe, parasite or virus in culture; format: cell-based, Plasmodium falciparum
Procedure: (§2) For parasite suspension, P. falciparum malaria strains were grown under normal conditions as previously described by Trager and Jensen with some modifications.” Briefly, parasites were suspended in RPMI 1640 supplemented with 0.23% sodium bicarbonate, […] hypoxanthine and 0.5% albumax (CM), 4% packed washed red blood cells by volume and incubated in a continuous gas incubator set to normal conditions (5% O2, 5% CO2, […]). Parasites were prepared for drug susceptibility assay by highly synchronizing schizonts 16 h before experiment start by using a 70% percoll method. Ring stage parasites were then resuspended in culture with fresh CM containing 2% hematocrit and 0.5% parasitemia.
(§3) Antimalaria activity was assessed against reference strains of NF54, 3D7 and Dd2 using an adaptation of the sensitivity assay of Desjardins et al. using SybrGreen fluorescence as an assessment of parasite growth.^32 NF54 original isolate was obtained from a patient living near Schiphol Airport, Amsterdam and its clonal isolate 3D7 are generally considered to be drug sensitive, though 3D7 does convey resistance to sulfadoxine. Dd2 derived from the parent W2, is multi-drug-resistant line originating from the Indochina III/CDC isolate, which contain point mutations in pfcrt as well as amplifications in pfmdr1 and GTP cyclohydrolase. Briefly, compounds were diluted to 10 μg/mL and serially diluted along a microtiter plate before adding in 100 μL/well of the parasite suspension. Parasite growth was compared to controls incubated at 37° C. and normal culture conditions (5% O2, 5% CO2, 90% N2) for 72 h. Plates were frozen and thawed before adding a final 1× concentration of SybrGreen in lysis buffer and read on the CLARIOstar fluorescence plate reader (Ex/Em 484-15/528-15) following a 45 min incubation at room temperature. Drug EC50 values were calculated by interpolation of the probit transformation of the log(dose)-response curve using the MARS software provided by BMG.

P. falciparum Dd2 = test: microbe, parasite or virus in culture; format: cell-based, Plasmodium falciparum
Procedure: as §2, §3

P. falciparum NF54 = test: microbe, parasite or virus in culture; format: cell-based, Plasmodium falciparum
Procedure: as §2, §3

[1] = tested on: murine J774 macrophage cells; test: Cytotoxicity testing against murine J774 macrophage cells (CellTiter 96); format: cell-based
Procedure: The isolated compounds were each tested for cytotoxicity using mammalian J774A.1 cell lines (ATCC TIB-67™) in complete media; RPMI 1640 medium with phenol red containing L-glutamine and then supplemented with 10% fetal bovine serum (CM). Cells were seeded at 5×10^5 cell/mL and plated in a 96-well format with 100 μL/well fresh media on day 0 and were incubated overnight at 37° C., 5% CO2 for adherence. Following 24 h incubation, spent media was removed and 100 μL of fresh media with test compounds were serially diluted 1:2 with a starting concentration of 10 μg/mL was added to the cells and incubated for an additional 68 h before adding in 20 μL CellTiter 96® AQueous One Solution Cell Proliferation Assay reagent (Promega). Cells were incubated for an additional 4 h before reading absorbance (490) nm on the CLARIOstar plate reader.

C. difficile UK6 = test: C. difficile MIC screening; format: cell-based, Clostridium difficile
HEK293T = test: MTT cytotoxicity, human kidney HEK293T cells; format: cell-based
Procedure: (§4) The cytotoxicity of the metabolites to human liver cells and kidney cells was determined using an MTT based-In Vitro Toxicology Assay Kit (Sigma-Aldrich, St. Louis, MO, USA) following the manufacturing instructions. The human kidney HEK293T cells and the human liver HEPGZ cells were used for the evaluation in this study. Both cell samples were maintained and suspended in Dulbecco's Modified Eagle Medium (DMEM with 4.5 g/L glucose, L-glutamine and sodium pyruvate, Corning, Manassas, VA, USA) containing 10% fetal bovine serum (Thermo Scientific) and 1% penicillin/streptomycin at 37° C. under 5% CO2 atmosphere. The cells were plated on a 96-well plate with approximately 5×10^3-1×10^4 cells in each well, and incubated at 37° C. overnight. […] After that, the liquid in each well of the plate was removed carefully and thoroughly, then the cells in the wells were treated with 100 μL of DMSO, and incubated at 37° C. for 15 m. […] Bio Tek Instruments, Inc. Winooski VT). Cells treated with vancomycin, a common option for treating CDI in clinical settings, were also included in the MTT tests as a control. Cell survival and the IC50 were calculated according to the method used in a previous publication: Survival of cells (%)=Drug-treated group OD540/control group OD540×100.

HepG2 = test: MTT cytotoxicity, human liver HepG2 cells; format: cell-based
Procedure: as §4

[2] = tested on: ESKAPE panel of bacterial pathogens; test: ESKAPE panel antibacterial screen; format: cell-based
J774.A1 macrophages = test: Cytotoxicity screen against Leishmania host cell line; format: cell-based; conditions: toxicity to J774.A1 macrophages
Procedure: as §1

[3] = tested on: liver stage of Plasmodium falciparum; conditions: previous investigation; cited from earlier work
[4] = tested on: Blood-Stage P. falciparum Strains; test: Initial blood-stage screen against several P. falciparum strains; format: cell-based, Plasmodium falciparum
Procedure: as §2, §3

[5] = cytotoxicity, murine J774 macrophage cells, read-out: EC50

| Compound | pIC50 (P. falciparum 3D7; 3D7) | pIC50 (P. falciparum Dd2; Dd2) | pIC50 (P. falciparum NF54; NF54) | EC50 (μg/mL) [1] | pEC50 [1, 5] | further results |
| --- | --- | --- | --- | --- | --- | --- |
| 4,12-Bis(acetyl)alcyopterosin O [Compound C8] |  |  |  |  |  | pIC50 (Leishmania donovani): 5.92 |
| CCN(CC)CCCC(C)Nc1ccnc2cc(Cl)ccc12 (stereo not shown) [Chloroquine, reference compound] |  |  |  |  |  | pIC50 (P. falciparum 3D7; Plasmodium falciparum, 3D7, read-out: IC50 Values against Blood-Stage P. falciparum Strains: 3D7): 7.52; pIC50 (P. falciparum Dd2; Plasmodium falciparum, DD2, read-out: IC50 Values against Blood-Stage P. falciparum Strains: Dd2): 5.89; pIC50 (P. falciparum NF54; Plasmodium falciparum, NF54, read-out: IC50 Values against Blood-Stage P. falciparum Strains: NF54): 7.52; EC50 ([1]; Mus musculus, J774): 16.3 µg/mL and 51 µM |
| Cc1cc2c(c3c1[C@@H](CO)OC3=O)CC(C)(C)C2 [Compound C3, alcyopterosin V] |  |  |  |  |  | activity against Clostridium difficile (C. difficile UK6): potent activity; MIC (C. difficile UK6; C. difficile): 8.1 µM (≈ 2 µg/mL); CC50 (HEK293T): 220 µM; CC50 (HepG2): 288 µM; activity against the ESKAPE panel [2]: inactive; pIC50 (J774.A1 macrophages): 3.96 |
| Cc1cc2c(c3c1[C@H](CO[N+](=O)[O-])OC3=O)CC(C)(C)C2 [Compound C4, alcyopterosin E] |  |  |  |  |  | activity against Clostridium difficile (C. difficile UK6): potent activity; CC50 (HEK293T): 570 µM; CC50 (HepG2): 331 µM; activity against the ESKAPE panel [2]: inactive; pIC50 (J774.A1 macrophages): 4.21 |
| CC(=O)O[C@@H]1[C@H](OC(C)=O)[C@H]([C@H](C)CCCC(C)C)[C@@]2(C)C[C@@H](OC(C)=O)[C@H]3[C@@H](C[C@@H](O)[C@H]4CC=CC(=O)[C@]34C)[C@H]12 [Compound C5, alcyosterone] |  |  |  |  |  | activity against the ESKAPE panel [2]: inactive; pIC50 (Leishmania donovani; Macrophage): 5.82 |
| Cc1cc2c(c(C)c1CCO[N+](=O)[O-])CC(C)(C)C2=O [Compound C6, alcyopterosin C] |  |  |  |  |  | pIC50 (Leishmania donovani): 4.89 |
| Cc1cc2c(c3c1[C@@H](CCl)OC3=O)CC(C)(C)[C@@H]2O [Compound C9, alcyopterosin L] |  |  |  |  |  | pIC50 (Leishmania donovani): 5.62 |
| CC[C@H](C)[C@@H](C(=O)N(C)/C=C\c1c[nH]c2ccccc12)N(C)C(=O)[C@H]([C@@H](C)CC)N(C)C(=O)[C@H](C)N(C)C(=O)[C@H](C(C)C)N(C)C(=O)[C@H](Cc1ccccc1)NC(C)=O [Compound P1, friomaramide A] (Ac-F[NMeV][NMeA][NMeI][NMeI]-X1) |  |  |  |  |  | blocking of liver stage parasite development [3]: comparable to the known drug primaquine |
| CC[C@H](C)[C@@H](C(=O)N(C)/C=C\c1c[nH]c2ccccc12)N(C)C(=O)[C@H](C(C)C)N(C)C(=O)[C@H](C(C)C)N(C)C(=O)[C@H](CC(C)C)N(C)C(=O)[C@@H]1CCCN1C(=O)[C@H](Cc1ccccc1)NC(=O)[C@H](Cc1ccccc1)NC(C)=O [Compound P2, friomaramide B] (Ac-FFP[NMeL][NMeV][NMeV][NMeI]-X1) | 5.06 | 5.48 | 5.41 | 26.7 µg/mL (≈ 24.6 µM) |  | blood-stage anti-malarial activity [4]: modest activity; pEC50 [1]: 4.61 |
| CC[C@H](C)[C@@H](C(N)=O)N(C)C(=O)[C@H](C(C)C)N(C)C(=O)[C@H](CC(C)C)N(C)C(=O)[C@H](Cc1ccccc1)N(C)C(=O)[C@H](Cc1ccccc1)NC=O [Compound P3, shagamide A] | 5.68 | 5.76 | 5.58 | >100 µg/mL | < 4.00 | activity against the 3D7 strain (P. falciparum 3D7; blood stage, strain 3D7): comparable activity |
| CC[C@H](C)C(C(=O)N(C)[C@H](C(=O)NC)[C@@H](C)CC)N(C)C(=O)[C@H](C(C)C)N(C)C(=O)[C@H](C)N(C)C(=O)[C@H](C(C)C)N(C)C(=O)[C@H](C(C)C)N(C)C(=O)[C@@H](NC=O)C(C)C (stereo partly shown) [Compound P4, shagamide B] (For-V[NMeV][NMeV][NMeA][NMeV][NMeξIle][NMeI]-NHMe) | < 5.00 | 5.36 | < 5.00 | >100 µg/mL | < 4.00 | blood-stage anti-malarial activity [4]: did not show significant activity; also recorded: inactive |
| CNC(=O)[C@H](C(C)C)N(C)C(=O)[C@H](C(C)C)N(C)C(=O)[C@H](C(C)C)N(C)C(=O)[C@H](C)N(C)C(=O)[C@H](C)N(C)C(=O)[C@H](CC(C)C)N(C)C(=O)[C@H](C(C)C)N(C)C(=O)[C@H](Cc1ccccc1)NC=O [Compound P5, shagamide C] (For-F[NMeV][NMeL][NMeA][NMeA][NMeV][NMeV][NMeV]-NHMe) | 5.60 | 5.97 | 5.43 | >100 µg/mL | < 4.00 | inhibition of strain 3D7 (P. falciparum 3D7; blood stage, strain 3D7): 2.52 µg/mL |
| CNC(=O)[C@H](C(C)C)N(C)C(=O)[C@H](C(C)C)N(C)C(=O)[C@H](C(C)C)N(C)C(=O)[C@H](C)N(C)C(=O)[C@H](C)N(C)C(=O)[C@H](CC(C)C)N(C)C(=O)[C@H](C(C)C)N(C)C(=O)[C@H](Cc1ccccc1)NC(N)=O [Compound P6, shagamide D] ({Phe(Nα-CONH2)}-[NMeV][NMeL][NMeA][NMeA][NMeV][NMeV][NMeV]-NHMe) | < 5.00 | 5.69 | 5.52 | >100 µg/mL | < 4.00 | activity against the 3D7 strain (P. falciparum 3D7; blood stage, strain 3D7): inactive |
| CC[C@H](C)[C@@H](C(=O)NC)N(C)C(=O)[C@H](C)N(C)C(=O)[C@H](C(C)C)N(C)C(=O)[C@H](C(C)C)N(C)C(=O)[C@H](C)N(C)C(=O)[C@H](C(C)C)N(C)C(=O)[C@H](C(C)C)N(C)C(=O)[C@H](C)N(C)C(=O)[C@H](C)NC(C)=O [Compound P7, shagamide E] (Ac-A[NMeA][NMeV][NMeV][NMeA][NMeV][NMeV][NMeA][NMeI]-NHMe) | < 5.00 | < 5.00 | < 5.00 | >100 µg/mL | < 4.00 | blood-stage anti-malarial activity [4]: did not show significant activity |
| CC[C@H](C)[C@@H](C(=O)N(C)[C@@H](C)C(=O)N(C)[C@H](C(N)=O)C(C)C)N(C)C(=O)[C@H]([C@@H](C)CC)N(C)C(=O)[C@H](C)N(C)C(=O)[C@H](C(C)C)N(C)C(=O)[C@H](C)N(C)C(=O)[C@@H](NC(C)=O)C(C)C [Compound P8, shagamide F] (Ac-V[NMeA][NMeV][NMeA][NMeI][NMeI][NMeA][NMeV]-NH2) | < 5.00 | < 5.00 | < 5.00 | >100 µg/mL | < 4.00 | blood-stage anti-malarial activity [4]: did not show significant activity |
| CN[C@H](CC(C)C)C(=O)N[C@H]1C(=O)N[C@@H](CC(N)=O)C(=O)N[C@H]2C(=O)N[C@H]3C(=O)N[C@H](C(=O)N[C@H](C(=O)O)c4cc(O)cc(O)c4-c4cc3ccc4O)[C@H](O)c3ccc(c(Cl)c3)Oc3cc2cc(c3O[C@@H]2O[C@H](CO)[C@@H](O)[C@H](O)[C@H]2O[C@H]2C[C@](C)(N)[C@H](O)[C@H](C)O2)Oc2ccc(cc2Cl)[C@H]1O [Vancomycin, reference compound] |  |  |  |  |  | MIC (C. difficile UK6; Clostridioides difficile, UK6): 0.34 µM (≈ 0.493 µg/mL); toxicity to host cells (HEK293T; HEK293T, same concentrations alcyopterosins were assayed): non-toxic; toxicity to host cells (HepG2; HepG2, same concentrations alcyopterosins were assayed): non-toxic |
| CCCCCCCCCCCCCCCCOP(=O)([O-])OCC[N+](C)(C)C [miltefosine, reference compound] |  |  |  |  |  | pIC50 (Leishmania donovani; Macrophage): 5.21 |
